Test results: patent US12286452B2, “Amphiphilic aminoglycoside connexin hemichannel inhibitors” (Texas Tech University System, priority 2018, dated 2025)
Where two headings read alike, the source gives them in different places.

Columns and labels:
[1] = biological target: T1, Cx43 HCs (Homo sapiens, UniProt P17302); experiment: Cx43-dependent growth complementation assay in E. coli LB2003; format: cell-based; settings: for Cx43/Cx26 Selectivity: IC50 Cx26/IC50 Cx43; for inhibition at 15 µM / Cx43 inhibition (%): 15 μM; for IC50: read-out: Cx43 IC50
T1 construct: expressed in transfected cells

[2] = biological target: T1, Cx43 HCs; settings: cited from earlier work
[3] = biological target: T2, human Cx26 HCs (Homo sapiens, UniProt P29033); experiment: Cx26-dependent growth complementation assay in E. coli LB2003; format: cell-based; settings: for IC50: read-out: Cx26 IC50
T2 construct: expressed in transfected cells; host or cells: E. coli LB2003 (carrying pREP4), transformed with pQE-Cx26, IPTG-induced
Procedure: These derivatives were prepared by sequential benzylation and methylation followed by reduction of azido groups or hydrogenolysis of the Bn. […] Connexin HC inhibition was conducted using a bacteria-based assay of HC function^39. In this assay, Cx26 HCs are expressed in E. coli LB2003 cells, which lack three major K^+ uptake systems (Kdp, Kup and Trk), and as a result they cannot grow in low-[K^+] media^39-41. However, growth of this E. coli strain in low-[K^+] medium can be rescued by expression of K^+-permeable channels such as connexin HCs^39, 42-43. Under the conditions of the assay (LB2003 cells expressing HCs and grown in low-K^+ medium), inhibition of the HCs reduces or abolishes growth^39, 42-43. This is a simple assay where bacterial growth in multi-well plates can be followed by measuring the absorbance at 600 nm (OD600)^29.
LB2003 cells generously provided by Dr. E. P. Bakker (Osnabruk University, Osnabruk, Germany) were transformed with the plasmid pQE-Cx26 (human Cx26 into pQE60) and pREP4. […] LB2003 cells cannot grow in low-[K^+] media because of insufficient K^+ uptake for growth due to the knockout of three key K^+ transporters (Atrk, Akup, Akdp strain)^2-4. Details and validation of the growth complementation assay have been published recently^2. In brief, competent LB2003 containing the pREP4 plasmid were transformed with pQE-Cx26. These cells were grown overnight in Luria-Bertani medium (BD, Franklin Lakes, NJ, USA) supplemented with 100 mM KCl (to allow growth) and 0.4 mg/mL ampicillin, and then washed four times with NLM (see below), to remove residual K^+ from the Luria-Bertani medium. The washed cells were resuspended in complementation growth medium to an OD600 of 0.2. NLM contained 46 mM Na2HPO4, 23 mM NaH2PO4, 8 mM (NH4)2SO4, 0.4 mM MgSO4, 0.012 mM FeSO4, 1 mM sodium citrate, 44 mM glucose and 0.006 mM thiamine hydrochloride, pH 7.0. KLM had the same composition that NLM except for the equimolar replacement of Na^+ with K^+. For growth complementation we used NLM+4 mM KCl, and Cx26 expression was induced with 0.5 mM IPTG at the time of dilution to OD600=0.2. For the assay, the cells were seeded in 96-well plates and were incubated at 30° C., with shaking at 500 rpm. OD600 was measured after 18-h incubation in a plate reader. The initial OD600=0.2 was subtracted for growth calculations. Data are presented as means±SEM. Statistically significant differences were calculated by the Student t-test for unpaired data. Data were obtained from at least 3 independent experiments, with 3 repeats per experiment.

[4] = biological target: T2, human Cx26 HCs; settings: commercial aminoglycosides, the 16th table, adapted from ref. 1; cited from earlier work
[5] = Table 3, read-out: Cx243% inhibition
[6] = K members, the 21st table, read-out: Cx43 % inhibition
[7] = Table 6, read-out: Cx43 (% inhibition)
[8] = the 15th table, second Cx43 column, sub-head and unit not given
[9] = the 15th table, sub-head and unit inferred
[10] = KI members, the 23rd table, read-out: Cx43 % inhibition

T1 sequence (P17302 whole entry): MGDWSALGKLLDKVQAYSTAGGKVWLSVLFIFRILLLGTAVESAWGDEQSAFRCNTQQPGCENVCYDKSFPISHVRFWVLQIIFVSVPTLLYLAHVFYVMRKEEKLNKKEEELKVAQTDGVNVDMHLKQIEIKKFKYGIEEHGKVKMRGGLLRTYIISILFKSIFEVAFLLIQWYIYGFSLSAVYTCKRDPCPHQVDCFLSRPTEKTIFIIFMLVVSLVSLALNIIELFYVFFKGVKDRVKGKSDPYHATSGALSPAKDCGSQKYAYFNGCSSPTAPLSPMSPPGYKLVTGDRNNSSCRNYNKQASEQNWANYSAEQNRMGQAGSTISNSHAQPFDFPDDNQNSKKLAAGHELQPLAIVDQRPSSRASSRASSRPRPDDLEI

inhibition at 15 µM [1, 5]	inhibition at 50 µM [1, 5]	inhibition at 15 µM ([3]; Table 3)	inhibition at 50 µM ([3]; Table 3)	inhibition at 15 µM [1, 6]	inhibition at 15 µM [1, 7]	inhibition at 50 µM [1, 6]	inhibition at 50 µM [1, 7]	IC50 ([1]; Table 7)	Cx43 Imax [1, 8]	IC50 [1, 9]	Cx43 Imax ([1]; the 22nd table)	IC50 ([1]; the 22nd table)	Cx43 Imax ([1]; the 24th table)	IC50 ([1]; the 24th table)	inhibition at 15 µM ([3]; Table 6)	inhibition at 50 µM ([3]; Table 6)	inhibition at 15 µM [1, 10]	inhibition at 50 µM [1, 10]	Structure (SMILES)	other results
15.6 ± 1.4%	40.4 ± 1%	49.7 ± 1.6%	77.4 ± 1.8%	–	–	–	–	–	–	–	–	–	–	–	–	–	–	–	NCC1O[C@H](OC2C(N)CC(N)C(OC3O[C@H](CO)C(O)C(N)[C@H]3O)C2O)C(O)[C@@H](O)[C@@H]1O (stereo in doubt) [Kanamycin A, reference compound]	IC50 ([2]; approximate, text b120, read-out: IC50 for inhibition of Cx43 HCs): ~50 µM
–	–	–	–	–	–	–	–	–	–	–	–	–	–	–	–	–	–	–	CN[C@@H]1[C@@H](O)[C@@H](O[C@@H]2[C@@H](O)[C@H](O[C@H]3O[C@H]([C@@H](C)O)[C@@H](O)[C@H](O)[C@H]3N)[C@@H](N)C[C@H]2N)OC[C@]1(C)O [Compound G418, G418]	IC50 [4]: 0.44 ± 0.06 µM; Cx43/Cx26 Selectivity ([1]; the 16th table): 0.20; IC50 ([2]; commercial aminoglycosides, the 16th table, adapted from ref. 1, read-out: Cx43 IC50): 3 ± 0.8 µM
–	–	19.3 ± 2.2%	28.2 ± 4.5%	58.4 ± 10.6%	> 50%	71 ± 14.1%	76.8 ± 5.8%	6.2 ± 1.4 µM	91.1 ± 11.5	7.1 ± 1.4 µM	91.1 ± 11.5%	7.1 ± 1.4 µM	91.1 ± 11.5%	7.1 ± 1.4 µM	19.3 ± 2.2%	28.2 ± 4.5%	–	–	Cc1ccc(OC[C@H]2OC(OC3C(N)CC(N)C(O[C@H]4OC(CN)[C@@H](O)C(O)C4O)[C@@H]3O)[C@H](O)C(N)C2O)cc1 (stereo partly shown) [Compound K82]	Cx43 inhibition (%) ([1]; Table 6, listed as 8b): 63.8 ± 6.8%; Cx43/Cx26 Selectivity ([1]; Table 7, listed as 8b): 7.97; IC50 ([3]; Table 7): 49.4 ± 9.3 µM
–	–	44.4 ± 7%	69.5 ± 4.5%	45.8 ± 6.4%	> 50%	76.7 ± 7.7%	68.3 ± 4.6%	8.9 ± 1.6 µM	80.6 ± 6.0	8.9 ± 1.6 µM	80.6 ± 6.0%	8.9 ± 1.6 µM	80.6 ± 6.0%	8.9 ± 1.6 µM	44.4 ± 7%	69.5 ± 4.5%	–	–	NCC1O[C@H](OC2C(N)CC(N)C(OC3O[C@H](COc4ccc(Cl)cc4)C(O)C(N)[C@H]3O)[C@H]2O)C(O)C(O)[C@@H]1O (stereo partly shown) [Compound K84]	Cx43 inhibition (%) ([1]; Table 6, listed as 8d): 50.3 ± 1.0%; Cx43/Cx26 Selectivity ([1]; Table 7): 1.93; Cx26 Imax ([3]; the 15th table, Cx26, sub-head and unit not given): 95.9 ± 10.9; IC50 ([3]; the 15th table, Cx26, unit not given (cf. the 22nd table)): 17.2 ± 3.2 µM; Cx26 Imax ([3]; the 22nd table): 95.9 ± 10.9%; Cx26 Imax ([3]; the 24th table): 95.9 ± 10.9%
17 ± 5.2%	37.2 ± 7.6%	14 ± 2.1%	25.2 ± 2.3%	–	17 ± 5.2%	–	37.2 ± 7.6%	–	–	–	–	–	–	–	14 ± 2.1%	25.2 ± 2.3%	17 ± 5.2%	37.2 ± 7.6%	CCCCCCCC(=O)NCC1O[C@H](OC2C(N)CC(N)C(OC3O[C@H](CO)C(O)C(N)[C@H]3O)[C@H]2O)C(O)C(O)[C@@H]1O (stereo partly shown) [KI02]	–
44.4 ± 5.3%	53.5 ± 1.9%	16.1 ± 3.2%	33.6 ± 3.8%	–	44.4 ± 5.3%	–	53.5 ± 1.9%	–	–	–	–	–	–	–	16.1 ± 3.2%	33.6 ± 3.8%	44.4 ± 5.3%	53.5 ± 1.9%	CCCCCCCCCC(=O)NCC1O[C@H](OC2C(N)CC(N)C(OC3O[C@H](CO)C(O)C(N)[C@H]3O)[C@H]2O)C(O)C(O)[C@@H]1O (stereo partly shown) [KI03]	–
